Assay results reported in patent publication US20050197350A1, “Novel quinoline, tetrahydroquinazoline, and pyrimidine derivatives and methods of treatment related to the use thereof” (TAISHO PHARMACEUTICAL CO., LTD., priority 2003, published 2005).

test system: MCH receptors; test: MCH receptor activity class (method not given); settings: MCH receptor activity class 1-3 (percent of control at 10^-7 M or IC50)

Row | SMILES | class
1 | Cc1cc(Cl)ccc1NC(=S)N[C@H]1CC[C@@H](Nc2cc(N(C)C)c3ccccc3n2)CC1 [compound 2286] | 3 (Class 3 The value of percent of control at 10^−7 M was more than 60% or the value of IC50 was more than 200 nM.)
2 | CN(C)c1cc(N[C@H]2CC[C@@H](NC(=S)NCc3cccc4ccccc34)CC2)nc2ccccc12 [compound 2287] | 3 (Class 3 The value of percent of control at 10^−7 M was more than 60% or the value of IC50 was more than 200 nM.)
3 | COc1cccc(CNC(=S)N[C@H]2CC[C@@H](Nc3cc(N(C)C)c4ccccc4n3)CC2)c1OC [compound 2288] | 3 (Class 3 The value of percent of control at 10^−7 M was more than 60% or the value of IC50 was more than 200 nM.)
4 | Cc1cc(C)c(NC(=S)N[C@H]2CC[C@@H](Nc3cc(N(C)C)c4ccccc4n3)CC2)cc1C [compound 2289] | 3 (Class 3 The value of percent of control at 10^−7 M was more than 60% or the value of IC50 was more than 200 nM.)
5 | CN(C)c1cc(N[C@H]2CC[C@@H](NC(=S)Nc3ccccc3-c3ccccc3)CC2)nc2ccccc12 [compound 2290] | 3 (Class 3 The value of percent of control at 10^−7 M was more than 60% or the value of IC50 was more than 200 nM.)

same assay, conditions: class by percent of control at 10^-7 M or IC50

Row | SMILES | class
6 | Cc1cc(Br)ccc1NC(=O)N[C@H]1CC[C@@H](Nc2nccc(N(C)C)n2)CC1 [compound 2249, N-(4-bromo-2-methylphenyl)-N′-(cis-4-{[4-(dimethylamino)pyrimidin-2-yl]amino}cyclohexyl)urea] | 2 (Class 2: The value of percent of control at 10^−7 M was from 40% to 60% or the value of IC′50 was from 50 nM to 200 nM.)
7 | CN(C)c1ccnc(N[C@H]2CC[C@@H](NC(=O)Nc3ccc4c(c3)OCCO4)CC2)n1 [compound 2251] | 3 (Class 3 The value of percent of control at 10^−7 M was more than 60% or the value of IC50 was more than 200 nM.)
8 | CC(C)c1cc(Br)c(NC(=O)N[C@H]2CC[C@@H](Nc3nccc(N(C)C)n3)CC2)c(Br)c1 [compound 2252] | 2 (Class 2: The value of percent of control at 10^−7 M was from 40% to 60% or the value of IC′50 was from 50 nM to 200 nM.)
9 | COc1ccc(NC(=O)N[C@H]2CC[C@@H](Nc3nccc(N(C)C)n3)CC2)cc1OC1CCCC1 [compound 2253] | 2 (Class 2: The value of percent of control at 10^−7 M was from 40% to 60% or the value of IC′50 was from 50 nM to 200 nM.)
10 | CN(C)c1ccnc(N[C@H]2CC[C@@H](NC(=O)Nc3ccc4c(c3)OCCCO4)CC2)n1 [compound 2254] | 3 (Class 3 The value of percent of control at 10^−7 M was more than 60% or the value of IC50 was more than 200 nM.)
11 | CCCCc1ccc(NC(=O)N[C@H]2CC[C@@H](Nc3nccc(N(C)C)n3)CC2)c(C)c1 [compound 2255] | 3 (Class 3 The value of percent of control at 10^−7 M was more than 60% or the value of IC50 was more than 200 nM.)
12 | Cc1onc(-c2ccccc2)c1NC(=O)N[C@H]1CC[C@@H](Nc2nccc(N(C)C)n2)CC1 [compound 2256] | 3 (Class 3 The value of percent of control at 10^−7 M was more than 60% or the value of IC50 was more than 200 nM.)
13 | CN(C)c1ccnc(N[C@H]2CC[C@@H](NC(=S)Nc3ccc(Br)cc3)CC2)n1 [compound 2257] | 3 (Class 3 The value of percent of control at 10^−7 M was more than 60% or the value of IC50 was more than 200 nM.)
14 | CN(C)c1ccnc(N[C@H]2CC[C@@H](NC(=S)Nc3ccc(C#N)cc3)CC2)n1 [compound 2258] | 2 (Class 2: The value of percent of control at 10^−7 M was from 40% to 60% or the value of IC′50 was from 50 nM to 200 nM.)
15 | CN(C)c1ccnc(N[C@H]2CC[C@@H](NC(=S)Nc3ccc(Cl)cc3Cl)CC2)n1 [compound 2259] | 3 (Class 3 The value of percent of control at 10^−7 M was more than 60% or the value of IC50 was more than 200 nM.)
16 | COc1ccc(NC(=S)N[C@H]2CC[C@@H](Nc3nccc(N(C)C)n3)CC2)c(OC)c1 [compound 2260] | 2 (Class 2: The value of percent of control at 10^−7 M was from 40% to 60% or the value of IC′50 was from 50 nM to 200 nM.)
17 | Cc1cccc(C)c1NC(=S)N[C@H]1CC[C@@H](Nc2nccc(N(C)C)n2)CC1 [compound 2261] | 3 (Class 3 The value of percent of control at 10^−7 M was more than 60% or the value of IC50 was more than 200 nM.)
18 | CCc1cccc(C(C)C)c1NC(=S)N[C@H]1CC[C@@H](Nc2nccc(N(C)C)n2)CC1 [compound 2262] | 3 (Class 3 The value of percent of control at 10^−7 M was more than 60% or the value of IC50 was more than 200 nM.)
19 | COc1ccccc1NC(=S)N[C@H]1CC[C@@H](Nc2nccc(N(C)C)n2)CC1 [compound 2263] | 3 (Class 3 The value of percent of control at 10^−7 M was more than 60% or the value of IC50 was more than 200 nM.)
20 | CN(C)c1ccnc(N[C@H]2CC[C@@H](NC(=S)Nc3cccc4ccccc34)CC2)n1 [compound 2264] | 3 (Class 3 The value of percent of control at 10^−7 M was more than 60% or the value of IC50 was more than 200 nM.)
21 | COc1cc(NC(=S)N[C@H]2CC[C@@H](Nc3nccc(N(C)C)n3)CC2)cc(OC)c1OC [compound 2265, N-(cis-4-{[4-(dimethylamino)pyrimidin-2-yl]amino}cyclohexyl)-N′-(3,4,5-trimethoxyphenyl)thiourea] | 1 (Class 1: The value of percent of control at 10^−7 M was less than 40% or the value of IC50 was less than 50 nM.)
22 | COc1ccc(NC(=S)N[C@H]2CC[C@@H](Nc3nccc(N(C)C)n3)CC2)cc1OC [compound 2266] | 2 (Class 2: The value of percent of control at 10^−7 M was from 40% to 60% or the value of IC′50 was from 50 nM to 200 nM.)
23 | CN(C)c1ccnc(N[C@H]2CC[C@@H](NC(=S)Nc3ccc(N(C)C)c4ccccc34)CC2)n1 [compound 2267] | 2 (Class 2: The value of percent of control at 10^−7 M was from 40% to 60% or the value of IC′50 was from 50 nM to 200 nM.)

Row | SMILES | class
24 | CCc1ccccc1NC(=S)N[C@H]1CC[C@@H](Nc2nccc(N(C)C)n2)CC1 [compound 2268] | 3 (Class 3 The value of percent of control at 10^−7 M was more than 60% or the value of IC50 was more than 200 nM.)
25 | COc1cc([N+](=O)[O-])ccc1NC(=S)N[C@H]1CC[C@@H](Nc2cc(N(C)C)c3ccccc3n2)CC1 [compound 2269] | 3 (Class 3 The value of percent of control at 10^−7 M was more than 60% or the value of IC50 was more than 200 nM.)
26 | COc1ccc(C)cc1NC(=S)N[C@H]1CC[C@@H](Nc2cc(N(C)C)c3ccccc3n2)CC1 [compound 2270] | 3 (Class 3 The value of percent of control at 10^−7 M was more than 60% or the value of IC50 was more than 200 nM.)
27 | CN(C)c1cc(N[C@H]2CC[C@@H](NC(=S)Nc3ccc(Br)cc3Cl)CC2)nc2ccccc12 [compound 2271] | 3 (Class 3 The value of percent of control at 10^−7 M was more than 60% or the value of IC50 was more than 200 nM.)
28 | CN(C)c1cc(N[C@H]2CC[C@@H](NC(=S)Nc3ccc(I)cc3)CC2)nc2ccccc12 [compound 2272] | 3 (Class 3 The value of percent of control at 10^−7 M was more than 60% or the value of IC50 was more than 200 nM.)
29 | CN(C)c1cc(N[C@H]2CC[C@@H](NC(=S)Nc3c(Cl)cc(Cl)cc3Cl)CC2)nc2ccccc12 [compound 2274, N-(cis-4-{[4-(dimethylamino)quinolin-2-yl]amino}cyclohexyl)-N′-(2,4,6-trichlorophenyl)thiourea] | 2 (Class 2: The value of percent of control at 10^−7 M was from 40% to 60% or the value of IC′50 was from 50 nM to 200 nM.)
30 | Cc1cc(C)c(NC(=S)N[C@H]2CC[C@@H](Nc3cc(N(C)C)c4ccccc4n3)CC2)c(C)c1 [compound 2275, N-(cis-4-{[4-(dimethylamino)quinolin-2-yl]amino}cyclohexyl)-N′-mesitylthiourea] | 1 (Class 1: The value of percent of control at 10^−7 M was less than 40% or the value of IC50 was less than 50 nM.)
31 | Cc1ccc(NC(=S)N[C@H]2CC[C@@H](Nc3cc(N(C)C)c4ccccc4n3)CC2)c(C)c1 [compound 2276] | 3 (Class 3 The value of percent of control at 10^−7 M was more than 60% or the value of IC50 was more than 200 nM.)
32 | CCc1cccc(CC)c1NC(=S)N[C@H]1CC[C@@H](Nc2cc(N(C)C)c3ccccc3n2)CC1 [compound 2277] | 1 (Class 1: The value of percent of control at 10^−7 M was less than 40% or the value of IC50 was less than 50 nM.)
33 | Cc1ccc(NC(=S)N[C@H]2CC[C@@H](Nc3cc(N(C)C)c4ccccc4n3)CC2)c(Br)c1 [compound 2278] | 3 (Class 3 The value of percent of control at 10^−7 M was more than 60% or the value of IC50 was more than 200 nM.)
34 | CN(C)c1cc(N[C@H]2CC[C@@H](NC(=S)NCc3ccccc3Cl)CC2)nc2ccccc12 [compound 2279] | 3 (Class 3 The value of percent of control at 10^−7 M was more than 60% or the value of IC50 was more than 200 nM.)
35 | CCc1cccc(C)c1NC(=S)N[C@H]1CC[C@@H](Nc2cc(N(C)C)c3ccccc3n2)CC1 [compound 2280] | 3 (Class 3 The value of percent of control at 10^−7 M was more than 60% or the value of IC50 was more than 200 nM.)
36 | CC(C)c1ccccc1NC(=S)N[C@H]1CC[C@@H](Nc2cc(N(C)C)c3ccccc3n2)CC1 [compound 2281] | 3 (Class 3 The value of percent of control at 10^−7 M was more than 60% or the value of IC50 was more than 200 nM.)
37 | COC(=O)c1cccc(NC(=S)N[C@H]2CC[C@@H](Nc3cc(N(C)C)c4ccccc4n3)CC2)c1 [compound 2282] | 3 (Class 3 The value of percent of control at 10^−7 M was more than 60% or the value of IC50 was more than 200 nM.)
38 | Cc1cc(Br)cc(C)c1NC(=S)N[C@H]1CC[C@@H](Nc2cc(N(C)C)c3ccccc3n2)CC1 [compound 2283, N-(4-bromo-2,6-dimethylphenyl)-N′-(cis-4-{[4-(dimethylamino)quinolin-2-yl]amino}cyclohexyl)thiourea] | 1 (Class 1: The value of percent of control at 10^−7 M was less than 40% or the value of IC50 was less than 50 nM.)
39 | Cc1cc(Br)ccc1NC(=S)N[C@H]1CC[C@@H](Nc2cc(N(C)C)c3ccccc3n2)CC1 [compound 2284] | 2 (Class 2: The value of percent of control at 10^−7 M was from 40% to 60% or the value of IC′50 was from 50 nM to 200 nM.)
40 | CN(C)c1cc(N[C@H]2CC[C@@H](NC(=S)Nc3ccc(Br)cc3C(F)(F)F)CC2)nc2ccccc12 [compound 2285] | 2 (Class 2: The value of percent of control at 10^−7 M was from 40% to 60% or the value of IC′50 was from 50 nM to 200 nM.)
